Measurements: patent publication US11098040B2, “Compounds and methods of use” (Ferro Therapeutics, Inc., priority 2018, dated 2021)
Like-named read-outs stand apart in the source and are kept apart here.

Key:
BxPC-3 = assay: Cell proliferation assay, pancreatic cancer cell line BxPC-3; type: cell-based; details: Homo sapiens
Method: (§1) Cell viability assay was performed to assess the potency of the compounds in human cancer cell lines 786-O (renal cell carcinoma) and SJSA-1 (osteosarcoma). Additional cell lines, such as those described above in Example 4 as well as various others, e.g., pancreatic cancer cell lines (Panc 02.13, BxPC-3, Panc 12, Panc 02.03, Panc 6.03, PSN-1, HPAC, and Capan-1) and prostate cancer cell lines (PC-3, DU145, 22Rv1, NCI-H660, BPH1, LNCaP, BM-1604, and MDA PCa 2b), were tested for select compounds as shown in Table 25.
(§2) The cell proliferation assays for the compounds shown Table 25 was performed according to the protocols described herein, including Examples 4 and 6.

Panc 02.13 = assay: Cell proliferation assay, pancreatic cancer cell line Panc 02.13; type: cell-based
Method: as §1, §2

U-2 OS = assay: Cell proliferation assay, U-2 OS (Table 25); type: cell-based; details: Homo sapiens, U2OS; Cell Line U-2 OS
Method: as §1, §2

HT-1080 luc2 = assay: Cell viability assay (CellTiter Glo), fibrosarcoma HT-1080 luc2; type: cell-based; details: Homo sapiens, Cell Line HT1080, read-out: IC50
Summary of the method: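 HT-1080 luc2 fibrosarcoma cells seeded overnight, then exposed 96 h at 37° C to 9-point 3-fold dilutions (top up to 30 μM; DMSO ≤0.25% final). CellTiter Glo luminescence; % inhibition relative to DMSO-only wells, fitted to IC50, relative IC50 or % top inhibition.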

143B = assay: Cell viability assay (CellTiter Glo), osteosarcoma 143B; type: cell-based; details: Homo sapiens, Cell Line 143B, read-out: IC50
Summary of the method: (§3)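 Cells seeded at 500-5,000/well overnight, then 96 h exposure to 9-point 3-fold dilutions from up to 30 μM (4.6 nM-30 μM), final DMSO ≤0.25%. Viability by CellTiter Glo luminescence; inhibition relative to DMSO-only cells, yielding IC50, relative IC50 or % top inhibition.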

MG-63 = assay: Cell proliferation assay, MG-63 (Table 25); type: cell-based; details: Homo sapiens
Method: as §1, §2

AsPC-1 = assay: Cell viability assay (CellTiter Glo), pancreatic adenocarcinoma AsPC-1; type: cell-based; details: Homo sapiens, ASPC1; Cell Line AsPC-1; read-out: IC50
Summary of the method: (§4)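 MiaPaCa-2 and AsPC-1 cells were seeded overnight at 37 °C and exposed for 96 h to 9-point, 3-fold dilutions from up to 30 μM (final DMSO ≤0.25%). CellTiter Glo luminescence was read, and inhibition was calculated relative to DMSO-only cells. IC50, relative IC50 or % top inhibition was derived.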

KP4 = assay: Cell viability assay (CellTiter Glo), pancreatic ductal adenocarcinoma KP4; type: cell-based, human; details: Homo sapiens
Summary of the method: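 Luminescent ATP readout (CellTiter Glo) after 96 h compound exposure, normalized to DMSO-treated cells as maximum. Compounds ran in duplicate, nine 3-fold steps from 30 μM down to 4.6 nM, final DMSO ≤0.25%; KP4 plated overnight at 1,000–10,000 cells/well. Outputs: IC50, relative IC50 or % top inhibition.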

SJSA-1 [1] = assay: Cell viability assay (CellTiter Glo), osteosarcoma SJSA-1; type: cell-based; details: Homo sapiens, 96 hours
Summary of the method: as §3

Panc 12 = assay: Cell proliferation assay, pancreatic cancer cell line Panc 12; type: cell-based
Method: as §1, §2

HPAC = assay: Cell proliferation assay, pancreatic cancer cell line HPAC; type: cell-based; details: Homo sapiens
Method: as §1, §2

PSN-1 = assay: Cell proliferation assay, pancreatic cancer cell line PSN-1; type: cell-based; details: Homo sapiens, PSN1
Method: as §1, §2

A549 = assay: Cell viability assay, A549 cells; type: cell-based; details: Homo sapiens, A549, Cell Line A549; read-out: IC50
Summary of the method: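 Growth of A549 cells was assessed with a cell viability assay. Cells were plated at 1,000-10,000 cells/well in 96-well plates and incubated overnight at 37° C. Nine-point 3-fold DMSO dilutions, starting from 30 μM and run in duplicate, were diluted into media (final DMSO 0.25% or less). After 96 hours, CellTiter Glo luminescence was read, inhibition was calculated against DMSO controls, and IC50 was fitted in XL-fit.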

Panc 02.03 = assay: Cell proliferation assay, pancreatic cancer cell line Panc 02.03; type: cell-based; details: Homo sapiens
Method: as §1, §2

Capan-1 = assay: Cell proliferation assay, pancreatic cancer cell line Capan-1; type: cell-based; details: Homo sapiens
Method: as §1, §2

H2228 = assay: Cell viability assay (CellTiter Glo), lung cancer cell line H2228; type: cell-based; details: Homo sapiens, NCI-H2228; Cell Line H2228; read-out: IC50
Summary of the method: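 Adherent lines got 500-5,000 cells/well and suspension lines 5,000-10,000. Treatment lasted 96 h across a 9-concentration 3-fold series, top concentration up to 30 μM. % inhibition relative to DMSO-only luminescence gave IC50 values.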

MiaPaCa-2 = assay: Cell viability assay (CellTiter Glo), pancreatic carcinoma MiaPaCa-2; type: cell-based; details: Homo sapiens; Cell Line Mia PaCa-2; read-out: IC50
Summary of the method: as §4

Panc 6.03 = assay: Cell proliferation assay, pancreatic cancer cell line Panc 6.03; type: cell-based
Method: as §1, §2

A673 = assay: Cell proliferation assay, A673 (Table 25); type: cell-based; details: Homo sapiens, A673, Cell Line A673
Method: as §1, §2

[2] = Whole blood stability, human; type: in vitro ADME
Excerpt: (§5) The results of the assay on stability in blood and IC50 values for pancreatic cancer cell line KP4 are given below in Table 24.

[3] = Whole blood stability, mouse; type: in vitro ADME
Excerpt: as §5

KSK-ES-1 = assay: Cell proliferation assay, KSK-ES-1 (Table 25); type: cell-based; details: Cell Line KSK-ES-1
Method: as §1, §2

KHOS/NP = assay: Cell proliferation assay, KHOS/NP (Table 25); type: cell-based; details: Homo sapiens, Cell Line KHOS/NP
Method: as §1, §2

SJSA-1 [4] = assay: Cell proliferation (Alamar Blue) assay, SJSA-1 osteosarcoma, with/without ferrostatin; type: cell-based, human; details: Homo sapiens, SJSA-1, Cell Line SJSA-1; read-out: IC50
Summary of the method: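 Cells seeded at 5000/well, 16-24 h, then exposed 24 h at 37° C to compound, 10-0.0005 μM in 3-fold dilutions, 1% DMSO final. Alamar Blue fluorescence (ex 540/em 590 nm) read after 1.5 h; IC50 from variable-slope sigmoidal fit.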

MDA PCa 2b = assay: Cell proliferation assay, prostate cancer cell line MDA PCa 2b; type: cell-based
Method: as §1, §2

BM-1604 = assay: Cell proliferation assay, prostate cancer cell line BM-1604; type: cell-based
Method: as §1, §2

LNCaP = assay: Cell proliferation assay, prostate cancer cell line LNCaP; type: cell-based; details: Homo sapiens
Method: as §1, §2

BPH1 = assay: Cell proliferation assay, prostate cancer cell line BPH1; type: cell-based; details: Homo sapiens, BPH-1
Method: as §1, §2

22Rv1 = assay: Cell proliferation assay, prostate cancer cell line 22Rv1; type: cell-based; details: Homo sapiens
Method: as §1, §2

PC-3 = assay: Cell proliferation assay, prostate cancer cell line PC-3; type: cell-based; details: Homo sapiens
Method: as §1, §2

DU145 = assay: Cell proliferation assay, prostate cancer cell line DU145; type: cell-based; details: Homo sapiens, DU-145
Method: as §1, §2

NCI-H660 = assay: Cell proliferation assay, prostate cancer cell line NCI-H660; type: cell-based
Method: as §1, §2

Compound	IC50 (BxPC-3) [nM]	IC50 (Panc 02.13) [nM]	IC50 (U-2 OS) [nM]	IC50 (HT-1080 luc2) [nM]	IC50 (143B) [nM]	IC50 (MG-63; MG-63, Cell Line MG-63) [nM]	IC50 (AsPC-1) [nM]	IC50 (HPAC) [nM]	IC50 (PSN-1) [nM]	IC50 (A549) [nM]	IC50 (Panc 02.03) [nM]	IC50 (Capan-1) [nM]	IC50 (H2228) [nM]	IC50 (MiaPaCa-2) [nM]	IC50 (Panc 6.03) [nM]	other results
CCC[C@H]1Cc2c([nH]c3ccccc23)[C@H](c2ccc(N3CCOCC3)cc2)N1C(=O)CCl [Example 118]	54.4	103	5020	3.81	4.74	39.3	7.34	20.5	17.6	5370	48.9	130	1.38	16.4	15.6	IC50 (MG-63; MG-63, Cell Line MG-67): > 3000 nM; IC50 (KP4; KP-4, Cell Line KP4, read-out: IC50): 0.00092 µM; IC50 (SJSA-1 [1]): 28 nM; IC50 (Panc 12; Cell Line Panc 9): 6.38 nM
CC[C@H]1Cc2c([nH]c3ccccc23)[C@H](c2ccc(N3CCOCC3)cc2)N1C(=O)CCl [Example 117]	86.7	216	3600	7.16	11.4		12.7	48.4	46.2		148	261	3.37	57	32.8	IC50 (Panc 12; Cell Line Panc 8): 14.8 nM
COc1ccc2[nH]c3c(c2c1)C[C@H](C)N(C(=O)CCl)[C@H]3c1ccc(N2CCOCC2)cc1 [Compound 121]																IC50 (A673): 88.5 nM; IC50 (KP4; KP-4, 96 h, pancreatic cancer cell line KP4, 96 hours, CellTiter Glo, read-out: IC50 μM KP4): < 0.01 µM; Whole Blood Stability % Remaining at 37° C. Human ([2]; 0 min): 100.0%; Whole Blood Stability % Remaining at 37° C. Human ([2]; 30 min): 90.3%; Whole Blood Stability % Remaining at 37° C. Human ([2]; 60 min): 61.3%; Whole Blood Stability % Remaining at 37° C. Mouse ([3]; 0 min): 100.0%; Whole Blood Stability % Remaining at 37° C. Mouse ([3]; 30 min): 84.3%; Whole Blood Stability % Remaining at 37° C. Mouse ([3]; 60 min): 50.0%
COc1ccc2[nH]c3c(c2c1)C[C@H](C)N(C(=O)CCl)[C@H]3c1ccc(N2CCOCC2)cc1 [Example 121]	1020	978	4890	63.2		535	69.3	206	175	7810	689	> 1000	16.6	206	225	IC50 (KSK-ES-1): 215 nM; IC50 (KHOS/NP): 63.2 nM; IC50 (Panc 12; Cell Line Panc 10): 58.6 nM; IC50 (SJSA-1 [4]): 108 nM
CCCC[C@H]1Cc2c([nH]c3ccccc23)[C@H](c2ccc(N3CCOCC3)cc2)N1C(=O)CCl [Compound 240]	71.1	120	4280	4.82	5.22	39.7	7.57	28.6	19.9	5700	64.1	169	1.7	35.1	16.9	IC50 (MDA PCa 2b): > 2000 nM; IC50 (BM-1604): > 2000 nM; IC50 (MG-63; MG-63, Cell Line MG-68): > 3000 nM; IC50 (Panc 12; Cell Line Panc 11): 8.55 nM; IC50 (LNCaP): 574 nM; IC50 (BPH1): 203 nM; IC50 (22Rv1): 22.9 nM; IC50 (PC-3): 3.9 nM; IC50 (DU145): 6.2 nM; IC50 (NCI-H660): 31.7 nM
